Measured values reported in patent publication US10537610B1, “Peptide for inhibition of cancer” (priority 2018, dated 2020).
Like-named read-outs stand apart in the source and are kept apart here. Non-standard residues stand in square brackets, D forms with d. Residues, ends and D or L forms follow the SMILES beside them.

Assays:
Assay type in all cases: cell-based, human
[1] = test system: JAM-A (CD321); assay: Flow cytometry of JAM-A (CD321) on the surface of HMEC-1 cells; settings: Tβ4 200 nM, TGF-β1 10 ng/ml or TNF-α 10 ng/mL, 24 hours
Description: For the detection of JAM-A surface expression the cells were labeled with FITC anti-human CD321 (F11R) Mouse IgG1 Antibody (BioLegend, San Diego, Calif., USA) or with the FITC Mouse IgG1 Isotype Control Antibody (BioLegend) for the negative control. Labeled cells were washed to remove unbound antibodies, harvested with ice cold EDTA/PBS, fixed with BD CellFix (Becton Dickinson. Franklin Lakes, N.J., USA) and subsequently analyzed by FACS Canto II flow cytometer (Becton Dickinson). Upon excitation at 488 nm with an argon laser the emission of the fluorescence was recorded through selective band pass filter at 517 nm. Data were recorded with DIVA software, version 6.0 (Becton Dickinson) and subsequently analyzed using FCSalyzer software, version 0.9.14-alpha (https://sourceforge.net/projects/fcsalyzer/).

[2] = test system: JAM-A; assay: Western blot of JAM-A protein in HMEC-1 cells
Procedure: The cells were lysed with lysis buffer (1% Triton X-100 and 0.1% SDS in PBS) supplemented with Halt Protease Inhibitor Cocktail (Thermo Scientific, Waltham, Mass., USA). For the equalization between the samples before the semi-quantitative analyses the protein content of lysates was determined with the BCA Protein Assay Kit according to the manufacturer's protocol (Thermo Scientific). Cell lysate aliquots at a protein content of 50 μg per sample were boiled with 5× concentrated loading buffer (final concentrations: 50 mM Tris-HCl, pH 6.8, 8% glycerol, 2% SDS, 5% β-mercaptoethanol, 0.002% bromophenol blue), separated under reducing conditions on 4-20% gradient SDS-PAGE gels (Bio-Rad) and electroblotted (120 min, 200 mA, 4° C.) onto polyvinylidene difluoride (PVDF) membranes (Bio-Rad). The membranes were washed with Tris-buffered saline (TBS) and blocked for 2 hours with TBS containing 5% nonfat dry milk at room temperature. Then, the membranes were incubated overnight at 4° C. with an appropriate amount of primary antibody diluted in TBS containing 0.05% Tween 20 (TBST). The following primary antibodies were used: monoclonal rabbit anti-JAM-A (Abcam, Cambridge, UK) at a dilution of 1:500 and monoclonal mouse anti-GAPDH (R&D Systems, Minneapolis, Minn., USA) at a dilution of 1:1000. The membranes were washed several times with TBST and incubated for 1 hour at room temperature with the corresponding polyclonal anti-rabbit and anti-mouse HRP-conjugated secondary antibodies (Santa Cruz Biotechnology, Dallas, Tex., USA) at a 1:5000 dilution in TBST. Following the subsequent washes with TBST the membranes were further processed for chemiluminescent detection using Westar TiC ECL Substrate (Cyanagen, Bologna, Italy) and the images were documented by ChemiDoc MP Imager (Bio-Rad).

[3] = test system: HMEC-1 endothelial monolayer
Procedure: The cells were treated with the peptide P4D for 0, 1, 5, or 24 hours at a concentration of 500 μM. The cells treated with the Scrambled peptide P4D (Scr; 500 μM; 0, 1, 5, or 24 hours incubation time) were used as a negative control. In order to provide the positive control of the junctions tightening for impedance-based measurements of endothelial permeability, the cells were incubated with the potent activator of TJ assembly, forskolin (FSK; BioShop, Burlington, ON, Canada), for 24 hours at a concentration of 10 μM. Experiments based on impedance measurements were performed at Bionanopark, Ltd. (Lodz, Poland) with an ACEA xCELLigence® Real-Time Cell Analysis (RTCA) DP system (Roche, Mannheim, Germany) consisting of an RTCA DP instrument, a personal computer-based RTCA control unit and single-use electronic 16-well plates “E-Plate VIEW 16 PET”. All experiments were performed following the manufacturer's instructions. In brief, the gold-film electrodes deposited on the bottom of the “E-plate VIEW 16 PET” electrode arrays were equilibrated with MCDB 131 culture medium overnight. Subsequently, the medium was aspirated and replaced by a 100 μL of fresh medium for impedance background measurements. HMEC-1 cells were seeded at a density of 40,000 cells per well in MCDB 131 medium with supplements. After allowing cell sedimentation for 30 min at room temperature, plates were locked into the RTCA DP instrument for continuous recording of impedance changes at three different AC frequencies (10 kHz, 25 kHz, 50 kHz), which are expressed as Cell Index (CI) values. CI is a dimensionless parameter based on relative impedance changes referenced to the values of the cell-free electrode at each frequency: [formula] where N is the number of the frequency points at which the impedance was measured, whereas […] Rb(fi) are the frequency-dependent electrode resistances with cells present and without cells, respectively. Thus, CI is a quantitative measure of cell status in a well, including the cell number, cell viability, adhesion degree, and morphology. Although CI is measured at three frequencies, only the most sensitive readings are returned by the software as a function of time and reported as the final results. In general, CI values rise with increasing coverage of the electrode with cells, which is caused at an early stage by cell sedimentation and, later on, by cell proliferation. During the phase of logarithmic cell growth HMEC-1 cells were pretreated with cytokines (TNF/IFN) and after 24 hours subsequently treated with the tested compounds (Scr, P4D, or FSK). For some experiments, the cells were treated with the compounds 2 hours after the cytokines treatment. Alternatively, the compounds treatment was applied about 3 hours after HMEC-1 seeding and about 67 hours later was followed by the cytokines treatment. This experimental approach included additionally the sample designated as 'P4D & TNF/IFN' i.e. after the pretreatment with P4D the cells were subjected to the concurrent treatment with P4D and cytokines.

| Compound | JAM-A (CD321) level on the cell surface [1] | level of JAM-A protein ([2]; Tβ4 200 nM or TGF-β1 10 ng/mL, 24-hours incubation) | action on JAM-A expression over incubation time ([2]; Tβ4 200 nM, 0, 2, 5, or 12 hours) | barrier-protecting effect (Cell Index) ([3]; P4D about 2.5 hours after plating plus second supplementary dose simultaneously with cytokines ('P4D & TNF/IFN')) | barrier-protecting effect (Cell Index) ([3]; P4D about 2.5 hours after plating, cytokines about 60 hours later, no supplementary dose) | barrier-strengthening effect relative to forskolin ([3]; applied ~24 hours after seeding, FSK 10 μM) | endothelial barrier function (Cell Index) ([3]; applied ~24 hours after seeding, compared to controls) | barrier-protecting effect (Cell Index) ([3]; compound applied 24 hours after treatment with inflammatory cytokines (TNF/IFN)) |
| --- | --- | --- | --- | --- | --- | --- | --- | --- |
| Thymosin β4 (SDKPDMAEIEKFDKSKLKKTETQEKNPLPSKETIEQEKQAGES; not fully specified; Thymosin beta-4; UniProt P62328 2-44, looked up) [Tβ4] | slightly decreased JAM-A level on the membrane of HMEC-1 cells | evidently reduced the level of JAM-A protein | time-dependent |  |  |  |  |  |
| CC(C)[C@H](NC(=O)[C@H](CO)NC(=O)[C@H](N)CCCCN)C(=O)N[C@H](C(=O)N[C@H](CCCNC(=N)N)C(=O)N[C@@H](CCC(=O)O)C(=O)N[C@@H](CC(=O)O)C(=O)N[C@H](C(=O)NCC(=O)N[C@H](C(=O)N[C@@H](Cc1ccc(O)cc1)C(=O)N[C@H](C(=O)N[C@@H](CS)C(N)=O)[C@@H](C)O)[C@@H](C)O)[C@@H](C)O)[C@@H](C)O [Peptide P4D, NH2-(dK)-SVT-(dR)-EDTGTYTC-CONH2] (H-[dK]SVT[dR]EDTGTYTC-NH2) |  |  |  | even more evident than that one of FSK | did not reveal any barrier-protecting properties | apparently weaker than that one of forskolin | slightly strengthened endothelial barrier function | did not reproduce the barrier-protecting effect of FSK |
